Measurements reported in patent US8877769B2, “Heteroaryl-substituted urea modulators of fatty acid amide hydrolase” (Janssen Pharmaceutica NV, priority 2008, dated 2014).

Experiments:
FAAH = target: T1, FAAH (Homo sapiens, UniProt O00519); experiment: Assay Method 1: FAAH assay, 3H-anandamide hydrolysis in cell homogenate
T1 sequence (O00519 1-579): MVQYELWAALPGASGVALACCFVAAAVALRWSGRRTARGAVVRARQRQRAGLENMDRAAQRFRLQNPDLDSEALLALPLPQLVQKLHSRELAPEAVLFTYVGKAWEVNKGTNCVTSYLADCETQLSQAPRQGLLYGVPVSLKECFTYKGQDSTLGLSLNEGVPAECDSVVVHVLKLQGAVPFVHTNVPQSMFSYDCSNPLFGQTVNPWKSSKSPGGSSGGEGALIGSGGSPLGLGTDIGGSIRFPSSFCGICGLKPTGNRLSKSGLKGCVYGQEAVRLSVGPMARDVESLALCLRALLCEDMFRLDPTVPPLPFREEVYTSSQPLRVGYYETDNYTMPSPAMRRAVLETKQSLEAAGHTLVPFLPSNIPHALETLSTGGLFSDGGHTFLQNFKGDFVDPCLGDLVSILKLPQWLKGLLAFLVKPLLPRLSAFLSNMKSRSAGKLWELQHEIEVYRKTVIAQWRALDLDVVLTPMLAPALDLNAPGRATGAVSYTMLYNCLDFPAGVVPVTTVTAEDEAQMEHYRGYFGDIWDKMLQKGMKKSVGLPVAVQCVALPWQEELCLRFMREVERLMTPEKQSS
Method: The assay mixture consisted of 50 μL of the cell homogenate, 10 μL of the test compound, and 40 μL of anandamide [1-^3H-ethanolamine] (^3H-AEA, Perkin-Elmer, 10.3 Ci/mmol), which was added last, for a final tracer concentration of 80 nM. The reaction mixture was incubated at rt for 1 h. During the incubation, 96-well Multiscreen filter plates (catalog number MAFCNOB50; Millipore, Bedford, Mass., USA) were loaded with 25 μL of activated charcoal (Multiscreen column loader, catalog number MACL09625, Millipore) and washed once with 100 μL of MeOH. […] After the 1 h incubation, 60 μL of the reaction mixture were transferred to the charcoal plates, which were then assembled on top of the DYNEX plates using Centrifuge Alignment Frames (catalog number MACF09604, Millipore). The unbound labeled ethanolamine was centrifuged through to the bottom plate (5 min at 2000 rpm), which was preloaded with the scintillant, as described above. The plates were sealed and left at rt for 1 h before counting on a Hewlett Packard TopCount. • Assay Method 2

Rat FAAH = target: T2, Rat FAAH (Rattus norvegicus, UniProt P97612); experiment: Assay Method 2: FAAH assay, 3H-anandamide hydrolysis in cell homogenate; assay type: biochemical; conditions: average of results obtained, > value = solubility limit or highest concentration tested
T2 construct: expressed in transfected cells
T2 sequence (P97612 1-579): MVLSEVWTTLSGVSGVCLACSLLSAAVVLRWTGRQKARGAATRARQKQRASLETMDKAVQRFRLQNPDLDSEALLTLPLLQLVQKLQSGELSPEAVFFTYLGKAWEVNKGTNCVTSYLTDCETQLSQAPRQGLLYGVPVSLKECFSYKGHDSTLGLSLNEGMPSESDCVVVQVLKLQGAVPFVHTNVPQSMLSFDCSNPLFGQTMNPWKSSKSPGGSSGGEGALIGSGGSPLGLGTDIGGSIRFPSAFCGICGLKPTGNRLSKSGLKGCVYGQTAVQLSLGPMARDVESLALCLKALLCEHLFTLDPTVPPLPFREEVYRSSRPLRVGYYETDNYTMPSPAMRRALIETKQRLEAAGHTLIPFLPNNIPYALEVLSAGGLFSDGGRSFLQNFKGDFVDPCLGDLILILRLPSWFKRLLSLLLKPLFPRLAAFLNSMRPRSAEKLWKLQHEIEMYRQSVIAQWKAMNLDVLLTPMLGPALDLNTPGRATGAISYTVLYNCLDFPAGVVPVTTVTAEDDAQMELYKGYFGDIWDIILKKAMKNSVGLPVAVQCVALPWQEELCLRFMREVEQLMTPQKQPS
Method: A. Transfection of Cells with Rat FAAH
The assay mixture consisted of 50 μL of the cell homogenate, 10 μL of the test compound, and 40 μL of anandamide [1-^3H-ethanolamine] (^3H-AEA, Perkin-Elmer, 10.3 Ci/mmol), which was added last, for a final tracer concentration of 80 nM. The reaction mixture was incubated at rt for 1 h. During the incubation, 96-well Multiscreen filter plates (catalog number MAFCNOB50; Millipore, Bedford, Mass., USA) were loaded with 25 μL of activated charcoal (Multiscreen column loader, catalog number MACL09625, Millipore) and washed once with 100 μL of MeOH. […] After the 1 h incubation, 60 μL of the reaction mixture were transferred to the charcoal plates, which were then assembled on top of the DYNEX plates using Centrifuge Alignment Frames (catalog number MACF09604, Millipore). The unbound labeled ethanolamine was centrifuged through to the bottom plate (5 min at 2000 rpm), which was preloaded with the scintillant, as described above. The plates were sealed and left at rt for 1 h before counting on a Hewlett Packard TopCount.

Compound	IC50 (FAAH) [nM]	IC50 (Rat FAAH) [nM]
O=C(Nc1noc2ncccc12)N1CCN(Cc2ccc(Br)cc2)CC1 [Example 11, 4-(4-Bromo-benzyl)-piperazine-1-carboxylic acid isoxazolo[5,4-b]pyridin-3-ylamide]	> 10000	> 10000
O=C(Nc1noc2ncccc12)N1CCN(Cc2ccc3ccccc3n2)CC1 [Example 12, 4-Quinolin-2-ylmethyl-piperazine-1-carboxylic acid isoxazolo[5,4-b]pyridin-3-ylamide]	2600	> 10000
O=C(Nc1noc2ncccc12)N1CCN(Cc2ccc(Cl)c(Cl)c2)CC1 [Example 13, 4-(3,4-Dichloro-benzyl)-piperazine-1-carboxylic acid isoxazolo[5,4-b]pyridin-3-ylamide]	460	3000
O=C(Nc1noc2ncccc12)N1CCN(Cc2cccc(Oc3ccc(F)c(C(F)(F)F)c3)c2)CC1 [Example 14, 4-[3-(4-Fluoro-3-trifluoromethyl-phenoxy)-benzyl]-piperazine-1-carboxylic acid isoxazolo[5,4-b]pyridin-3-ylamide]	470	4000
O=C(Nc1noc2ncccc12)N1CCN(Cc2cccc(Oc3cccc(C(F)(F)F)c3)c2)CC1 [Example 15, 4-[3-(3-Trifluoromethyl-phenoxy)-benzyl]-piperazine-1-carboxylic acid isoxazolo[5,4-b]pyridin-3-ylamide]	300	860
N#Cc1cccc(Oc2cccc(CN3CCN(C(=O)Nc4noc5ncccc45)CC3)c2)c1 [Example 16, 4-[3-(3-Cyano-phenoxy)-benzyl]-piperazine-1-carboxylic acid isoxazolo[5,4-b]pyridin-3-ylamide]	2000	6000
O=C(Nc1noc2ncccc12)N1CCN(Cc2cccc(Oc3ccc(SC(F)(F)F)cc3)c2)CC1 [Example 17, 4-[3-(4-Trifluoromethylsulfanyl-phenoxy)-benzyl]-piperazine-1-carboxylic acid isoxazolo[5,4-b]pyridin-3-ylamide]	470	180
O=C(Nc1noc2ncccc12)N1CCN(Cc2cccc(Oc3ccc4ncccc4c3)c2)CC1 [Example 18, 4-[3-(Quinolin-6-yloxy)-benzyl]-piperazine-1-carboxylic acid isoxazolo[5,4-b]pyridin-3-ylamide]	6000	> 10000
N#Cc1ccc(Oc2cccc(CN3CCN(C(=O)Nc4noc5ncccc45)CC3)c2)cc1C(F)(F)F [Example 19, 4-[3-(4-Cyano-3-trifluoromethyl-phenoxy)-benzyl]-piperazine-1-carboxylic acid isoxazolo[5,4-b]pyridin-3-ylamide]	> 10000	> 10000
O=C(Nc1noc2ncccc12)N1CCN(Cc2cccc(OCc3ccccc3)c2)CC1 [Example 21, 4-(3-Benzyloxy-benzyl)-piperazine-1-carboxylic acid isoxazolo[5,4-b]pyridin-3-ylamide]	2000	> 10000
O=C(Nc1noc2ncccc12)N1CCN(Cc2cccc(Oc3ccc(S(=O)(=O)C(F)(F)F)cc3)c2)CC1 [Example 22, 4-[3-(4-Trifluoromethanesulfonyl-phenoxy)-benzyl]-piperazine-1-carboxylic acid isoxazolo[5,4-b]pyridin-3-ylamide]	> 10000	> 10000
O=C(Nc1noc2ncccc12)N1CCN(Cc2cccc(Oc3cccc(Cl)c3)c2)CC1 [Example 23, 4-[3-(3-Chloro-phenoxy)-benzyl]-piperazine-1-carboxylic acid isoxazolo[5,4-b]pyridin-3-ylamide]	220	300
O=C(Nc1noc2ncccc12)N1CCN(Cc2cccc(Oc3ccc(Br)cc3)c2)CC1 [Example 24, 4-[3-(4-Bromo-phenoxy)-benzyl]-piperazine-1-carboxylic acid isoxazolo[5,4-b]pyridin-3-ylamide]	34	53
O=C(Nc1noc2ncccc12)N1CCN(Cc2ccc(Br)c(Br)c2)CC1 [Example 25, 4-(3,4-Dibromo-benzyl)-piperazine-1-carboxylic acid isoxazolo[5,4-b]pyridin-3-ylamide]	370	3000
O=C(Nc1noc2ncccc12)N1CCN(Cc2cccc(Oc3ccc(F)c(F)c3)c2)CC1 [Example 26, 4-[3-(3,4-Difluoro-phenoxy)-benzyl]-piperazine-1-carboxylic acid isoxazolo[5,4-b]pyridin-3-ylamide]	3200	> 10000
O=C(Nc1noc2ncccc12)N1CCN(Cc2cccc(Oc3ccccc3)c2)CC1 [Example 27, 4-(3-Phenoxy-benzyl)-piperazine-1-carboxylic acid isoxazolo[5,4-b]pyridin-3-ylamide]	> 10000	> 10000
O=C(Nc1noc2ncccc12)N1CCN(Cc2cc3ccccc3s2)CC1 [Example 28, 4-Benzo[b]thiophen-2-ylmethyl-piperazine-1-carboxylic acid isoxazolo[5,4-b]pyridin-3-ylamide]	6000	> 10000
O=C(Nc1noc2ncccc12)N1CCN(Cc2cccc(Oc3ccc(C(F)(F)F)cc3)c2)CC1 [Example 30, 4-[3-(4-Trifluoromethyl-phenoxy)-benzyl]-piperazine-1-carboxylic acid isoxazolo[5,4-b]pyridin-3-ylamide]	340	430
O=C(Nc1noc2ncccc12)N1CCN(Cc2cc3ccccc3o2)CC1 [Example 31, 4-Benzofuran-2-ylmethyl-piperazine-1-carboxylic acid isoxazolo[5,4-b]pyridin-3-ylamide]	3000	> 10000
N#Cc1ccc(Oc2cccc(CN3CCN(C(=O)Nc4noc5ncccc45)CC3)c2)cc1 [Example 32, 4-[3-(4-Cyano-phenoxy)-benzyl]-piperazine-1-carboxylic acid isoxazolo[5,4-b]pyridin-3-ylamide]	300	2300
O=C(Nc1noc2ncccc12)N1CCN(Cc2cccc(Oc3ccc(OCC(F)(F)F)cc3)c2)CC1 [Example 33, 4-{3-[4-(2,2,2-Trifluoro-ethoxy)-phenoxy]-benzyl}-piperazine-1-carboxylic acid isoxazolo[5,4-b]pyridin-3-ylamide]	200	200
O=C(Nc1noc2ncccc12)N1CCN(Cc2cccc(Oc3ccc4c(c3)OC(F)(F)O4)c2)CC1 [Example 34, 4-[3-(2,2-Difluoro-benzo[1,3]dioxol-5-yloxy)-benzyl]-piperazine-1-carboxylic acid isoxazolo[5,4-b]pyridin-3-ylamide]	> 60	> 400
O=C(Nc1noc2ncccc12)N1CCN(Cc2cccc(Oc3cccc(Br)c3)c2)CC1 [Example 35, 4-[3-(3-Bromo-phenoxy)-benzyl]-piperazine-1-carboxylic acid isoxazolo[5,4-b]pyridin-3-ylamide]	150	300
O=C(Nc1noc2ncccc12)N1CCN(Cc2cccc(Oc3cccc(OC(F)(F)F)c3)c2)CC1 [Example 36, 4-[3-(3-Trifluoromethoxy-phenoxy)-benzyl]-piperazine-1-carboxylic acid isoxazolo[5,4-b]pyridin-3-ylamide]	1400	6000
